This note sets out measurements from patent publication US10800725B2, “Arylpropionyl-triketone antibacterial agents” (priority 2010, dated 2020).

pIC50: −log10 of the molar value. Converted amounts (≈) assume the structure as drawn.

Assay [1] has as its target M. tuberculosis RNA polymerase core enzyme + σA (Mycobacterium tuberculosis (strain ATCC 25618 / H37Rv), UniProt P9WGY7+P9WGY9). Briefly: Fluorescence-detected RNA polymerase assay, M. tuberculosis RNAP. It is filed as biochemical. The procedure: (§1) Fluorescence-detected RNA polymerase assays with E. coli RNA polymerase were performed by a modification of the procedure of Kuhlman et al., 2004 [Kuhlman, P., Duff, H. & Galant, A. (2004) A fluorescence-based assay for multisubunit DNA-dependent RNA polymerases. Anal. Biochem. 324, 183-190]. Reaction mixtures contained (20 μl): 0-100 nM test compound, 75 nM E. coli RNA polymerase σ^70 holoenzyme, 20 nM 384 bp DNA fragment containing the bacteriophage T4 N25 promoter, 100 μM ATP, 100 μM GTP, 100 μM UTP, 100 μM CTP, 50 mM Tris-HCl, pH 8.0, 100 mM KCl, 10 mM MgCl2, 1 mM DTT, 10 μg/ml bovine serum albumin, and 5.5% glycerol. Reaction components other than DNA and NTPs were pre-incubated for 10 min at 37° C. Reactions were carried out by addition of DNA and incubation for 5 min at 37° C., followed by addition of NTPs and incubation for 60 min at 37° C. DNA was removed by addition of 1 μl 5 mM CaCl2 and 2 U DNaseI (Ambion, Inc.), followed by incubation for 90 min at 37° C. RNA was quantified by addition of 100 μl RiboGreen RNA Quantitation Reagent (Invitrogen, Inc.; 1:500 dilution in Tris-HCl, pH 8.0, 1 mM EDTA), followed by incubation for 10 min at 25° C., followed by measurement of fluorescence intensity [excitation wavelength=485 nm and emission wavelength=535 nm; QuantaMaster QM1 spectrofluorometer (PTI, Inc.)]. IC50 is defined as the concentration of inhibitor resulting in 50% inhibition of RNA polymerase activity.
Fluorescence-detected RNA polymerase assays with M. tuberculosis RNA polymerase were performed as in Example 21.1, using reaction mixtures containing (20 μl): 0-100 nM test compound, 75 nM M. tuberculosis RNA polymerase core enzyme, 300 nM M. tuberculosis σ^A, 20 nM 384 bp DNA fragment containing the bacteriophage T4 N25 promoter, 100 μM ATP, 100 μM GTP, 100 μM UTP, 100 μM CTP, 40 mM Tris-HCl, pH 8.0, 80 mM NaCl, 5 mM MgCl2, 2.5 mM DTT, and 12.7% glycerol. IC50 is defined as the concentration of inhibitor resulting in 50% inhibition of RNA polymerase activity.

In assay [2] the test system is Francisella tularensis SCHU4. Briefly: microbe, parasite or virus in culture. It is filed as cell-based. The settings on record: SCHU4, read-out: MIC F. tularensis SCHU4.
Assay [3] has as its system Streptococcus pyogenes ATCC 12344. Briefly: MIC, spiral gradient endpoint assay (GC II agar, 5% CO2). The settings on record: ATCC12344, read-out: MIC S. pyogenes 12344.
Assay [4] concerns Staphylococcus aureus ATCC 12600. Briefly: MIC, spiral gradient endpoint assay. The settings on record: ATCC12600, read-out: MIC S. aureus 12600.
The test system of assay [5] is Enterococcus faecalis ATCC 19433. Kind of assay: MIC, spiral gradient endpoint assay. The note with it: ATCC19433, read-out: MIC E. faecalis 19433.
The subject of assay [6] is Bacillus anthracis Vollum-1b. Briefly: microbe, parasite or virus in culture. It counts as cell-based. The settings on record: VOLLUM1B, read-out: MIC B. anthracis Vollum-1b.
The subject of assay [7] is Staphylococcus aureus BAA-1717 MRSA (USA300). Briefly: MIC, spiral gradient endpoint assay. The settings on record: read-out: MIC S. aureus MRSA 1717.
In assay [8] the test system is Staphylococcus aureus ATCC 13709 MSSA. Kind of assay: MIC, spiral gradient endpoint assay. The note with it: read-out: MIC S. aureus 13709.
Assay [9] deals with Mycobacterium tuberculosis H37Rv. Kind of assay: MIC, microplate Alamar Blue assay. The settings on record: read-out: MIC M. tuberculosis H37Rv.
Assay [10] has as its target E. coli RNA polymerase σ70 holoenzyme (Escherichia coli (strain K12), UniProt P0A8T7+P0A8V2). Kind of assay: Fluorescence-detected RNA polymerase assay, E. coli RNAP. It counts as biochemical. The procedure:
as §1

The subject of assay [11] is Moraxella catarrhalis ATCC 25238. Briefly: MIC, spiral gradient endpoint assay (GC II agar, 5% CO2). The note with it: ATCC25238, read-out: MIC M. catarrhalis 25238.
Assay [12] relates to Escherichia coli D21f2tolC. Briefly: MIC, spiral gradient endpoint assay. The note with it: read-out: MIC E. coli D21f2tolC.
In assay [13] the test system is Streptococcus pneumoniae ATCC 49619. Briefly: MIC, spiral gradient endpoint assay (GC II agar, 5% CO2). The settings on record: ATCC49619, read-out: MIC S. pneumoniae 49619.
Assay [14] has as its system Enterococcus faecium ATCC 19434. Kind of assay: MIC, spiral gradient endpoint assay. The note with it: ATCC19434, read-out: MIC E. faecium 19434.
Assay [15] relates to Staphylococcus aureus BAA-1707 MRSA (MW2). Kind of assay: MIC, spiral gradient endpoint assay. The note with it: read-out: MIC S. aureus MRSA 1707.
The target of assay [16] is S. aureus RNA polymerase core enzyme + σA (Staphylococcus aureus (strain NCTC 8325 / PS 47), UniProt P47768+Q2G0N5). Briefly: Fluorescence-detected RNA polymerase assay, S. aureus RNAP. It counts as biochemical. The procedure: as §1
Fluorescence-detected RNA polymerase assays with S. aureus RNA polymerase were performed as in Example 21.1, using reaction mixtures containing (20 μl): 0-100 nM test compound, 75 nM S. aureus RNA polymerase core enzyme, 300 nM S. aureus σ^A, 20 nM 384 bp DNA fragment containing the bacteriophage T4 N25 promoter, 100 μM ATP, 100 μM GTP, 100 μM UTP, 100 μM CTP, 40 mM Tris-HCl, pH 8.0, 80 mM NaCl, 5 mM MgCl2, 2.5 mM DTT, and 12.7% glycerol. IC50 is defined as the concentration of inhibitor resulting in 50% inhibition of RNA polymerase activity.

In the case of `CC(C)CCC1=C(O)C(CCC(C)C)(CCC(C)C)C(=O)C(C(=O)C(C)Cc2ccccc2)=C1O` (stereo not shown) [Compound 20, 3,5-dihydroxy-2-(2-methyl-3-phenylpropanoyl)-4,6,6-triisopentylcyclohexa-2,4-dienone], the pIC50 in [1] is 5.14; in assay [10], 4.92; in assay [16] it was 4.89. Besides, the MIC in assay [2] came out at 0.78 µg/mL (≈ 1.62 µM); in assay [3] it was 15 µg/mL (≈ 31.1 µM); in [4], 0.4 µg/mL (≈ 0.829 µM); in assay [5], 0.7 µg/mL (≈ 1.45 µM); in assay [6] it was 0.098 µg/mL (≈ 0.203 µM); in assay [7], 0.7 µg/mL (≈ 1.45 µM). In addition, the MIC in assay [8] amounted to 0.7 µg/mL (≈ 1.45 µM); in [9], 50 µg/mL (≈ 104 µM); in [11], 24 µg/mL (≈ 49.7 µM); in assay [12], 6 µg/mL (≈ 12.4 µM); in assay [13] it was 19 µg/mL (≈ 39.4 µM); in assay [14], 0.6 µg/mL (≈ 1.24 µM). Besides, the MIC in assay [15] is 0.7 µg/mL (≈ 1.45 µM).
